Experimental data: patent publication US20210023223A1, “HYDROCARBON / LIPID - CAROTENOID COMPLEXES” (IP SCIENCE LIMITED, priority 2018, published 2021)

Tested on: moderately obese volunteers
Assay: Serum lipids after 20 mg lycopene for 1 month
Type: in vivo, human
Procedure: Study Design. The total number of volunteers recruited to take part in the study was 18 (9 male and 9 female subjects) Caucasians 40-67 years old.
Products Formulated with Lycopene was developed and made by Lycotec Ltd. (Cambridge, United Kingdom). The daily dose was 1 capsule of 20 mg of lycopene, and it was taken with the main meal of the day. The period of administration was 1 month.
Blood was collected by phlebotomy in the morning, in the hospital, from the arm veins of patients following night fast. The serum was separated from the rest of the clotted mass by centrifugation; aliquots were then stored in code-labelled tubes for blinded analysis and stored at −80° C. until use.

[1] = after 20 mg lycopene daily for one month

CC(C)=CCC/C(C)=C/C=C/C(C)=C/C=C/C(C)=C/C=C/C=C(C)/C=C/C=C(C)/C=C/C=C(\C)CCC=C(C)C [Lycopene]
HDL [1]: 49.9 ± 3.0^ mg/dL
LDL [1]: 121 ± 10.5 mg/dL
Triglycerides [1]: 128 ± 9.7 mg/dL
HDL (before, n = 18): 49.2 ± 2.9^ mg/dL
LDL (before, n = 18): 134 ± 11.3 mg/dL
Triglycerides (before, n = 18): 136 ± 10.1 mg/dL
